Assay results as given in patent publication US20060293307A1, “Oxazolidinone derivatives as antimicrobials” (priority 2002, published 2006).
≈ marks a conversion by molar mass, not a printed value. Like-named read-outs stand apart in the source and are kept apart here.

How the values were obtained:
[1] = test system: H. influenzae 49766; experiment: MIC against Haemophilus strains; assay type: cell-based
[2] = test system: Moraxella M6; experiment: MIC, agar incorporation method; assay type: cell-based
[3] = test system: H. influenzae P318; experiment: MIC against Haemophilus strains; assay type: cell-based
[4] = test system: H. influenzae 35056; experiment: MIC against Haemophilus strains; assay type: cell-based
[5] = test system: H. influenzae βIac; experiment: MIC against Haemophilus strains; assay type: cell-based
[6] = test system: S. warnerii ST360; experiment: MIC, agar incorporation method; assay type: cell-based
[7] = test system: E. faecalis 5B (VRE); experiment: MIC, agar incorporation method; assay type: cell-based
[8] = test system: H. influenzae 451; experiment: MIC against Haemophilus strains; assay type: cell-based
[9] = test system: H. influenzae 1381; experiment: MIC against Haemophilus strains; assay type: cell-based
[10] = test system: M. tuberculosis ATCC; experiment: MIC against M. tuberculosis strains, agar dilution; assay type: cell-based, Mycobacterium tuberculosis; conditions: Mycobacterium tuberculosis, S. No. 01.Mt-, Middle Brook 7H10 + OADC, 37° C., 14-21 days, read-out: MIC
[11] = test system: M. tuberculosis SGPGI; experiment: MIC against M. tuberculosis strains, agar dilution; assay type: cell-based, Mycobacterium tuberculosis; conditions: Mycobacterium tuberculosis, S. No. 05 Mt-, Middle Brook 7H10 + OADC, 37° C., 14-21 days, read-out: MIC
[12] = test system: M. tuberculosis PC; experiment: MIC against M. tuberculosis strains, agar dilution; assay type: cell-based, Mycobacterium tuberculosis; conditions: Mycobacterium tuberculosis, S. No. 16 Mt-, Middle Brook 7H10 + OADC, 37° C., 14-21 days, read-out: MIC
[13] = test system: M. tuberculosis H37Rv; experiment: MIC against M. tuberculosis strains, agar dilution; assay type: cell-based, Mycobacterium tuberculosis; conditions: Mycobacterium tuberculosis, S. No. 04 Mt-, Middle Brook 7H10 + OADC, 37° C., 14-21 days, read-out: MIC
[14] = test system: M. tuberculosis PC; experiment: MIC against M. tuberculosis strains, agar dilution; assay type: cell-based, Mycobacterium tuberculosis; conditions: Mycobacterium tuberculosis, S. No. 19 Mt-, Middle Brook 7H10 + OADC, 37° C., 14-21 days, read-out: MIC
[15] = test system: M. avium ATCC 49601; experiment: MIC against MAC strains, agar dilution; assay type: cell-based, Mycobacterium avium; conditions: Mycobacterium avium, ATCC49601; S. No. 01 Ma-1, M. avium ATCC 49601; Middle Brook 7H10 + OADC, 37° C., 14-21 days; read-out: MIC
[16] = test system: M. tuberculosis PC; experiment: MIC against M. tuberculosis strains, agar dilution; assay type: cell-based, Mycobacterium tuberculosis; conditions: Mycobacterium tuberculosis, S. No. 22 Mt-, Middle Brook 7H10 + OADC, 37° C., 14-21 days, read-out: MIC
[17] = test system: M. tuberculosis PC 4782; experiment: MIC against M. tuberculosis strains, agar dilution; assay type: cell-based, Mycobacterium tuberculosis; conditions: Mycobacterium tuberculosis, PC4782, S. No. 21 Mt-, Middle Brook 7H10 + OADC, 37° C., 14-21 days, read-out: MIC
[18] = test system: M. tuberculosis V-591; experiment: MIC against M. tuberculosis strains, agar dilution; assay type: cell-based, Mycobacterium tuberculosis; conditions: Mycobacterium tuberculosis, V591, S. No. 13 Mt-, Middle Brook 7H10 + OADC, 37° C., 14-21 days, read-out: MIC
[19] = test system: M. tuberculosis 50; experiment: MIC against M. tuberculosis strains, agar dilution; assay type: cell-based, Mycobacterium tuberculosis; conditions: Mycobacterium tuberculosis, S. No. 12 Mt-, Middle Brook 7H10 + OADC, 37° C., 14-21 days, read-out: MIC
[20] = test system: M. tuberculosis 35801; experiment: MIC against M. tuberculosis strains, agar dilution; assay type: cell-based, Mycobacterium tuberculosis; conditions: Mycobacterium tuberculosis, S. No. 02 Mt-, Middle Brook 7H10 + OADC, 37° C., 14-21 days, read-out: MIC
[21] = Haemophilus influenzae, s. No. 6, H. influenzae 49766, read-out: MIC
[22] = Haemophilus influenzae, s. No. 10, H. influenzae P318, read-out: MIC
[23] = Haemophilus influenzae, s. No. 1, H. influenzae 35056, read-out: MIC
[24] = Haemophilus influenzae, s. No. 3, H. influenzae βIac, read-out: MIC
[25] = Haemophilus influenzae, s. No. 8, H. influenzae 451, read-out: MIC
[26] = Haemophilus influenzae, s. No. 7, H. influenzae 1381, read-out: MIC
[27] = S. No. 19, E. faecalis 5B (VRE)

Row | Compound | MIC [6] [µg/mL] | MIC ([1]; s. No. 6, H. influenzae 49766) [µg/mL] | MIC ([2]; S. No. 60, Moraxella M6) [µg/mL] | MIC ([3]; s. No. 10, H. influenzae P318) [µg/mL] | MIC ([4]; s. No. 1, H. influenzae 35056) [µg/mL] | MIC ([5]; s. No. 3, H. influenzae βIac) [µg/mL] | MIC ([6]; S. No. 16, S. warnerii ST360) [µg/mL] | MIC [7, 27] [µg/mL] | MIC ([8]; s. No. 8, H. influenzae 451) [µg/mL] | MIC ([9]; s. No. 7, H. influenzae 1381) [µg/mL] | also measured
1 | CC(=O)NC[C@H]1CN(c2ccc(N3CCN(c4ccc(C=O)s4)CC3)c(F)c2)C(=O)O1 [Compound No. 2, (S)—N-[[3-[3-Fluoro-4-[4-(5-formyl-2-thienyl)-1-piperazinyl]phenyl]-2-oxo-5-oxazolidinyl]methyl]acetamide] | < 0.25 |  |  |  |  |  |  |  |  |  | MIC [1, 21]: > 16 µg/mL; MIC ([2]; S. No. 60, Moraxella M6, read-out: MIC): 0.5 µg/mL (≈ 1.12 µM); MIC [3, 22]: > 16 µg/mL; MIC [4, 23]: 16 µg/mL (≈ 35.8 µM); MIC [5, 24]: 16 µg/mL (≈ 35.8 µM); MIC ([7]; Enterococcus faecalis, S. No. 19, E. faecalis 5B (VRE), read-out: MIC): 0.5 µg/mL (≈ 1.12 µM); MIC [8, 25]: 16 µg/mL (≈ 35.8 µM); MIC [9, 26]: 8 µg/mL (≈ 17.9 µM)
2 | CC(=O)NC[C@H]1CN(c2ccc(N3CCN(c4ccc(C=O)o4)CC3)c(F)c2)C(=O)O1 [Compound No. 3, (S)—N-[[3-[3-Fluoro-4-[4-(5-formyl-2-furyl)-1-piperazinyl]phenyl]-2-oxo-5-oxazolidinyl]methyl]acetamide] |  |  |  |  |  |  |  |  |  |  | MIC [1, 21]: 8 µg/mL (≈ 18.6 µM); MIC [3, 22]: 8 µg/mL (≈ 18.6 µM); MIC [4, 23]: 4 µg/mL (≈ 9.29 µM); MIC [5, 24]: 4 µg/mL (≈ 9.29 µM); MIC [8, 25]: 8 µg/mL (≈ 18.6 µM); MIC [9, 26]: 8 µg/mL (≈ 18.6 µM)
3 | CC(=O)NC[C@H]1CN(c2ccc(N3CCN(c4ccc([N+](=O)[O-])o4)CC3)c(F)c2)C(=O)O1 [Compound No. 4, (S)—N-[[3-[3-Fluoro-4-[4-(5-nitro-2-furyl)-1-piperazinyl]phenyl]-2-oxo-5-oxazolidinyl]methyl]acetamide] | 8 (≈ 17.9 µM) |  |  |  |  |  |  |  |  |  | 
4 | CC(=O)NC[C@H]1CN(c2ccc(N3CCN(c4cc(C(OC(C)=O)OC(C)=O)sc4[N+](=O)[O-])CC3)c(F)c2)C(=O)O1 [Compound No. 5, (S)—N-[[3-[3-Fluoro-4-[4-{3-thienyl(2-nitro)-5-acetyloxy}methylacetate]-1-piperazinyl]phenyl]-2-oxo-5-oxazolidinyl]acetamide] |  | >16 | 2 (≈ 3.37 µM) | >16 | >16 | >16 | 0.25 (≈ 0.421 µM) | 1 (≈ 1.68 µM) | >16 | >16 | 
5 | CC(=O)NC[C@H]1CN(c2ccc(N3CCN(c4ccc([N+](=O)[O-])s4)CC3)cc2)C(=O)O1 [Compound No. 6, (S)—N-[[3-[4-[N-1-(5-nitro-2-thienyl)piperazinyl]-phenyl]-2-oxo-5-oxazolidinyl]-methyl]-acetamide] |  | 16 (≈ 35.9 µM) |  | 16 (≈ 35.9 µM) | 16 (≈ 35.9 µM) | 8 (≈ 18 µM) | 1 (≈ 2.24 µM) |  | 16 (≈ 35.9 µM) | 16 (≈ 35.9 µM) | 
6 | C[C@H](Cl)C(=O)NCC1CN(c2ccc(N3CCN(c4ccc([N+](=O)[O-])s4)CC3)c(F)c2)C(=O)O1 (stereo partly drawn) [Compound No. 7, (S)—N-[[3-[3-Fluoro-4-[N-1-{4-(5-nitro-2-thienyl)piperazinyl}]-phenyl]-2-oxo-5-oxazolidinyl]-methyl]-2-chloro-propionamide] |  | >16 | >8 | >16 | >16 | >16 | 4 (≈ 7.81 µM) | >8 | >16 | >16 | 
7 | O=C(NC[C@H]1CN(c2ccc(N3CCN(c4ccc([N+](=O)[O-])s4)CC3)c(F)c2)C(=O)O1)C(F)F [Compound No. 8, (S)—N-[[3-[3-Fluoro-4-[4-(5-nitro-2-thienyl)-1-piperazinyl]phenyl]-2-oxo-5-oxazolidinyl]methyl]difluoroacetamide] | 0.25 (≈ 0.501 µM) |  |  |  |  |  |  |  |  |  | MIC ([1]; Haemophilus influenzae, 49766): > 16 µg/mL; MIC ([2]; Moraxella, M6): 1 µg/mL (≈ 2 µM); MIC ([3]; Haemophilus influenzae, P318): > 16 µg/mL; MIC ([4]; Haemophilus influenzae, 35056): > 16 µg/mL; MIC ([5]; Haemophilus influenzae): > 16 µg/mL; MIC ([7]; Enterococcus faecalis, VRE): 2 µg/mL (≈ 4 µM); MIC ([8]; Haemophilus influenzae, 451): > 16 µg/mL; MIC ([9]; Haemophilus influenzae, 1381): > 16 µg/mL
8 | CC(=O)NC[C@H]1CN(c2ccc(N3CCOCC3)c(F)c2)C(=O)O1 [Linezolid, reference compound] | < 0.5 |  |  |  |  |  |  |  |  |  | MIC [1, 21]: 16 µg/mL (≈ 47.4 µM); MIC ([2]; Moraxella, M6): 4 µg/mL (≈ 11.9 µM); MIC [3, 22]: 16 µg/mL (≈ 47.4 µM); MIC [10]: 1 µg/mL; MIC [11]: 4 µg/mL; MIC [12]: 32 µg/mL; MIC [4, 23]: 8 µg/mL (≈ 23.7 µM); MIC [5, 24]: 8 µg/mL (≈ 23.7 µM); MIC [13]: 1 µg/mL; MIC ([7]; Enterococcus faecalis, VRE): 2 µg/mL (≈ 5.93 µM); MIC [14]: 0.5 µg/mL; MIC [15]: 0.5 µg/mL; MIC [8, 25]: 16 µg/mL (≈ 47.4 µM); MIC [16]: 32 µg/mL; MIC [17]: 1 µg/mL; MIC [18]: > 32 µg/mL; MIC [19]: > 32 µg/mL; MIC [20]: 1 µg/mL; MIC [9, 26]: 16 µg/mL (≈ 47.4 µM)
9 | CN[C@H](CC(C)C)C(=O)N[C@H]1C(=O)N[C@@H](CC(N)=O)C(=O)N[C@H]2C(=O)N[C@H]3C(=O)N[C@H](C(=O)N[C@H](C(=O)O)c4cc(O)cc(O)c4-c4cc3ccc4O)[C@H](O)c3ccc(c(Cl)c3)Oc3cc2cc(c3O[C@@H]2O[C@H](CO)[C@@H](O)[C@H](O)[C@H]2O[C@H]2C[C@](C)(N)[C@H](O)[C@H](C)O2)Oc2ccc(cc2Cl)[C@H]1O [Vancomycin, reference compound] | 0.5 (≈ 0.345 µM) |  |  |  |  |  |  |  |  |  | MIC ([2]; Moraxella, M6): > 8 µg/mL; MIC ([7]; Enterococcus faecalis, VRE): > 16 µg/mL
10 | O=C(NC[C@H]1CN(c2ccc(N3CCN(c4ccc([N+](=O)[O-])s4)CC3)c(F)c2)C(=O)O1)C(Cl)Cl [compound 9, (S)—N-[[3-[-3-Fluoro-4-[N-1-(5-nitro-2-thienyl)-piperazinyl]phenyl] -2-oxo-5-oxazolidinyl]methyl]dichloroacetamide] |  | >16 | 1 (≈ 1.88 µM) | >16 | >16 | >16 | 0.5 (≈ 0.939 µM) | 0.5 (≈ 0.939 µM) | >16 | >16 | 
11 | (S)—N-[[3-[-3-Fluoro-4-[(5-nitro-2-thienyl)-3-methyl-1-piperazinyl]phenyl]-2-oxo-5-oxazolidinyl]methyl]acetamide [Compound No. 10] |  | >16 | 2 | >16 | >16 | >16 | 0.5 | 1 | >16 | >16 | 
